Several values for one entry are separate records, joined by “and”; a condition that tells them apart may be missing. Equal values may be shown once. Inconclusive results and toxic doses are left out.

In this test the test system is BDF1 mice, P388 leukemia ip, median survival T/C. Put plainly: NCI In Vivo Anticancer Drug Screen. Data for tumor model P388 Leukemia (intraperitoneal) in B6D2F1 (BDF1) mice. The settings on record: endpoint: median survival time, higher = longer survival. An outline of the steps:
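T/C = treated-group survival ÷ vehicle-control survival; tumour transplanted into mice before dosing.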

The mark [1] stands for this setting: dose: 1.0 mg/kg/injection, schedule: Q01DX009 (ip), vehicle: saline.
The mark [2] stands for this setting: dose: 25.0 mg/kg/injection, schedule: Q04DX003 (ip), vehicle: Klucel (hydroxypropylcellulose) (HPC).
Setting [3] is: dose: 50.0 mg/kg/injection, schedule: Q04DX003 (ip), vehicle: Klucel (hydroxypropylcellulose) (HPC).
Where [4] appears, read: dose: 100.0 mg/kg/injection, schedule: Q04DX003 (ip), vehicle: Klucel (hydroxypropylcellulose) (HPC).
[5] abbreviates: dose: 25.0 mg/kg/injection, schedule: Q01DX009 (ip), vehicle: saline.
Where [6] appears, read: dose: 50.0 mg/kg/injection, schedule: Q01DX009 (ip), vehicle: saline.
The mark [7] stands for this setting: dose: 12.5 mg/kg/injection, schedule: Q01DX009 (ip), vehicle: Klucel (hydroxypropylcellulose) (HPC).
Where [8] appears, read: dose: 25.0 mg/kg/injection, schedule: Q01DX009 (ip), vehicle: Klucel (hydroxypropylcellulose) (HPC).
Where [9] appears, read: dose: 12.5 mg/kg/injection, schedule: Q04DX003 (ip), vehicle: saline with Tween-80.
Where [10] appears, read: dose: 25.0 mg/kg/injection, schedule: Q04DX003 (ip), vehicle: saline with Tween-80.
The mark [11] stands for this setting: dose: 8.0 mg/kg/injection, schedule: Q01DX009 (ip), vehicle: saline with Tween-80.

For `CCCCCCCCCCCC(=O)CCCCC`, the T/C was 100 % of control (dose: 100.0 mg/kg/injection, schedule: Q04DX003 (ip), vehicle: other); 100 % of control (dose: 200.0 mg/kg/injection, schedule: Q04DX003 (ip), vehicle: other); 104 % of control (dose: 400.0 mg/kg/injection, schedule: Q04DX003 (ip), vehicle: other).
For `[Ni+2].[SH2+]C([SH2+])=Nc1ccccc1.[SH2+]C([SH2+])=Nc1ccccc1.c1ccc(C[P+](c2ccccc2)(c2ccccc2)c2ccccc2)cc1`, the T/C was 115 % of control (dose: 0.5 mg/kg/injection, schedule: Q01DX009 (ip), vehicle: saline); 95 % of control and 120 % of control under setting [1]; 95 % of control (dose: 1.0 mg/kg/injection, schedule: Q04DX003 (ip), vehicle: other); 118 % of control and 120 % of control (dose: 3.0 mg/kg/injection, schedule: Q01DX009 (ip), vehicle: saline); 108 % of control (dose: 3.0 mg/kg/injection, schedule: Q04DX003 (ip), vehicle: other); 100 % of control (dose: 4.0 mg/kg/injection, schedule: Q01DX009 (ip), vehicle: saline). The T/C is, setting by setting: (dose: 6.0 mg/kg/injection, schedule: Q01DX009 (ip), vehicle: saline) 104 % of control and 105 % of control; (dose: 6.0 mg/kg/injection, schedule: Q04DX003 (ip), vehicle: other) 95 % of control; (dose: 9.0 mg/kg/injection, schedule: Q01DX009 (ip), vehicle: saline) 110 % of control and 118 % of control; (dose: 10.0 mg/kg/injection, schedule: Q01DX009 (ip), vehicle: Klucel (hydroxypropylcellulose) (HPC)) 115 % of control.
As to `c1ccc(C2C3(c4ccccc4)C4(c5ccccc5)OC(c5ccccc5)(c5ccccc54)C23c2ccccc2)cc1` (stereo not drawn), the T/C (dose: 50.0 mg/kg/injection, schedule: Q01DX009 (ip), vehicle: Klucel (hydroxypropylcellulose) (HPC)) was 91 % of control; the T/C (dose: 100.0 mg/kg/injection, schedule: Q01DX009 (ip), vehicle: Klucel (hydroxypropylcellulose) (HPC)) was 103 % of control; the T/C (dose: 200.0 mg/kg/injection, schedule: Q01DX009 (ip), vehicle: Klucel (hydroxypropylcellulose) (HPC)) is 92 % of control.
`O=C(C(=O)c1ccc(Cl)cc1)c1ccc(Cl)cc1`: the T/C (dose: 12.5 mg/kg/injection, schedule: Q04DX003 (ip), vehicle: other) is 100 % of control and the T/C (dose: 25.0 mg/kg/injection, schedule: Q04DX003 (ip), vehicle: other) was 86 % of control.
Consider `CN1c2ccccc2C(=O)N2CCc3c([nH]c4ccccc34)C21` (stereo not drawn), for which the T/C was 98 % of control (dose: 10.0 mg/kg/injection, schedule: Q01DX009 (ip), vehicle: saline with Tween-80) and 118 % of control (dose: 20.0 mg/kg/injection, schedule: Q01DX009 (ip), vehicle: saline with Tween-80).
On to `Cc1ccc(S(=O)(=O)NN=C(c2ccccc2)c2ccccc2)cc1`, for which the T/C reads like this: (dose: 12.5 mg/kg/injection, schedule: Q04DX003 (ip), vehicle: Klucel (hydroxypropylcellulose) (HPC)) 98 % of control; under setting [2], 103 % of control; under setting [3], 103 % of control; under setting [4], 97 % of control; (dose: 200.0 mg/kg/injection, schedule: Q04DX003 (ip), vehicle: Klucel (hydroxypropylcellulose) (HPC)) 97 % of control.
Take `COC1/C=C/OC2(C)Oc3c(C)c(O)c4c(O)c(c(/C=N/N5CCN(Cc6ccccc6)CC5)c(O)c4c3C2=O)NC(=O)C(C)=C/C=C/C(C)C(O)C(C)C(O)C(C)C(OC(C)=O)C1C` (stereo not drawn): the T/C reads like this: under setting [5], 119 % of control; under setting [6], 100 % of control.
Regarding `OC1CCC(O)C1(Cl)Cl` (stereo not drawn), the T/C reads like this: under setting [5], 109 % of control; under setting [6], 108 % of control; (dose: 100.0 mg/kg/injection, schedule: Q01DX009 (ip), vehicle: saline) 98 % of control.
As to `COc1ccc2c3csc4ccccc4c-3nc2c1`, the T/C by setting is: under setting [7], 109 % of control; under setting [8], 109 % of control; under setting [2], 100 % of control and 122 % of control; under setting [3], 109 % of control; (dose: 75.0 mg/kg/injection, schedule: Q01DX001 (ip), vehicle: Klucel (hydroxypropylcellulose) (HPC)) 112 % of control; under setting [4], 104 % of control and 105 % of control. For the same compound, the T/C (dose: 150.0 mg/kg/injection, schedule: Q01DX001 (ip), vehicle: Klucel (hydroxypropylcellulose) (HPC)) is 100 % of control.
For `Cc1cccc(C)c1NC(=O)N(CCCl)N=O`, the T/C is, setting by setting: (dose: 0.88 mg/kg/injection, schedule: Q01DX009 (ip), vehicle: saline with Tween-80) 159 % of control; (dose: 1.32 mg/kg/injection, schedule: Q01DX009 (ip), vehicle: saline with Tween-80) 159 % of control; (dose: 2.0 mg/kg/injection, schedule: Q01DX009 (ip), vehicle: saline with Tween-80) 204 % of control; (dose: 3.0 mg/kg/injection, schedule: Q01DX009 (ip), vehicle: saline with Tween-80) 200 % of control; under setting [9], 86 % of control; under setting [10], 109 % of control.
Turning to `CCC(C)C(=O)OC1C(=O)OC2CC3C(C)=CC(=O)C(O)C3(C)C3C4(O)OCC23C1C(C)C4O` (stereo not drawn), the T/C by setting is: (dose: 0.06 mg/kg/injection, schedule: Q01DX009 (ip), vehicle: saline with Tween-80) 117 % of control; (dose: 0.25 mg/kg/injection, schedule: Q01DX009 (ip), vehicle: saline) 121 % of control; under setting [1], 111 % of control; (dose: 2.0 mg/kg/injection, schedule: Q01DX009 (ip), vehicle: saline) 124 % of control; under setting [11], 95 % of control.
In the case of `Clc1nnc(Nc2ccccc2)c2ccccc12`, the T/C is 100 % of control (dose: 100.0 mg/kg/injection, schedule: Q01DX001 (ip), vehicle: Klucel (hydroxypropylcellulose) (HPC)); 91 % of control (dose: 200.0 mg/kg/injection, schedule: Q01DX001 (ip), vehicle: Klucel (hydroxypropylcellulose) (HPC)); 104 % of control (dose: 400.0 mg/kg/injection, schedule: Q01DX001 (ip), vehicle: Klucel (hydroxypropylcellulose) (HPC)).
Regarding `CC(C)N(C)C(C)(C)CO`, the T/C reads like this: (dose: 50.0 mg/kg/injection, schedule: Q01DX001 (ip), vehicle: saline) 100 % of control; (dose: 100.0 mg/kg/injection, schedule: Q01DX001 (ip), vehicle: saline) 100 % of control; (dose: 200.0 mg/kg/injection, schedule: Q01DX001 (ip), vehicle: saline) 100 % of control.
Take `CC(=O)Nc1cc2c(cc1[N+](=O)[O-])-c1ccc([N+](=O)[O-])cc1C2`: the T/C runs as follows: (dose: 6.25 mg/kg/injection, schedule: Q01DX009 (ip), vehicle: Klucel (hydroxypropylcellulose) (HPC)) 89 % of control; under setting [7], 97 % of control; under setting [8], 89 % of control and 91 % of control.
Take `CC(c1ccccc1)c1ccc(O)cc1` (stereo not drawn): the T/C is 110 % of control (dose: 50.0 mg/kg/injection, schedule: Q01DX009 (ip), vehicle: saline with Tween-80); 110 % of control (dose: 100.0 mg/kg/injection, schedule: Q01DX009 (ip), vehicle: saline with Tween-80); 100 % of control (dose: 100.0 mg/kg/injection, schedule: Q04DX003 (ip), vehicle: saline); 110 % of control (dose: 200.0 mg/kg/injection, schedule: Q01DX009 (ip), vehicle: saline with Tween-80); 91 % of control (dose: 200.0 mg/kg/injection, schedule: Q04DX003 (ip), vehicle: saline).
On to `C=CC(OC(C)=O)OC(C)=O`, for which the T/C by setting is: (dose: 6.0 mg/kg/injection, schedule: Q01DX009 (ip), vehicle: saline with Tween-80) 104 % of control; under setting [11], 115 % of control; (dose: 12.0 mg/kg/injection, schedule: Q01DX009 (ip), vehicle: saline with Tween-80) 111 % of control; under setting [9], 108 % of control; (dose: 18.0 mg/kg/injection, schedule: Q01DX009 (ip), vehicle: saline with Tween-80) 100 % of control; under setting [10], 117 % of control.
